Data as given in patent US7205403B2, “8-Heteroaryl xanthine adenosine A2B receptor antagonists” (King Pharmaceuticals Research and Development, Inc., priority 2002, dated 2007).
Read-outs that look alike come from different tables or passages of the source.

What was measured:
[1] = target: T1, human A1 adenosine receptor (Homo sapiens, UniProt P30542); assay: [3H]DPCPX binding to human A1 receptors expressed in CHO cells; settings: geometric mean (95% confidence interval); >1000 = no appreciable binding
T1 construct: expressed in transfected cells; host or cells: CHO cells (membranes)
T1 sequence (P30542 1-326): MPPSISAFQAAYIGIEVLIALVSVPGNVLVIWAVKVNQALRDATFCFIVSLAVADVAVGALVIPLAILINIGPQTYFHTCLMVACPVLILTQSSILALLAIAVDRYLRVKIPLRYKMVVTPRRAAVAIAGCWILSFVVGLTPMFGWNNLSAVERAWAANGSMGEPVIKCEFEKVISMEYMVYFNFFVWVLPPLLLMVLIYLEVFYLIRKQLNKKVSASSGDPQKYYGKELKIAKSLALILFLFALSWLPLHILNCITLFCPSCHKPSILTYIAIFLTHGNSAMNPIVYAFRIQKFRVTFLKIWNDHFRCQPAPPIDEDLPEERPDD

[2] = target: T2, human A2A adenosine receptor (Homo sapiens, UniProt P29274); assay: [3H]ZM241385 binding to human A2A receptors expressed in CHO cells
T2 construct: expressed in transfected cells; host or cells: CHO cells (membranes)
Method in brief: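 Membranes from adherent CHO cells, resuspended in 50 mM Tris HCl with 10 mM MgCl2, pH 7.4. The inhibitory binding constant is reported.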

[3] = target: T3, human A3 adenosine receptor (Homo sapiens, UniProt P0DMS8); assay: [3H]MRE3008F20 binding to human A3 receptors expressed in CHO cells
T3 construct: expressed in transfected cells; host or cells: CHO cells (membranes)
T3 sequence (P0DMS8 1-318): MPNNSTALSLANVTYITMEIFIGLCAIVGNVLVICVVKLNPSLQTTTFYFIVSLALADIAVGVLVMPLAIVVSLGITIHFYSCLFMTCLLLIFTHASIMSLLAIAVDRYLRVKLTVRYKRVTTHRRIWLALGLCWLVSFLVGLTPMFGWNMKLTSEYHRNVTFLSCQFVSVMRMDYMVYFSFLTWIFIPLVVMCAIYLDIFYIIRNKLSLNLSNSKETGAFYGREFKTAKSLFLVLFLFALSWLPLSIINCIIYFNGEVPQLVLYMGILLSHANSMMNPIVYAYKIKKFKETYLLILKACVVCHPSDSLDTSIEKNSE
Method in brief: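 CHO cell membranes (50 μg protein) competed against 1 nM [3H]-MRE3008-F20 in 50 mM Tris HCl, MgCl2, pH 7.4, with 6–8 ligand concentrations in duplicate, 120 minutes at 4° C. Filter-bound radioactivity counted by scintillation; inhibitory binding constants derived.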

[4] = target: T4, human A2B adenosine receptor (Homo sapiens, UniProt P29275); assay: Cyclic AMP assay, antagonism of NECA-stimulated cAMP in CHO cells transfected with human A2B receptors; assay type: cell-based
T4 sequence (P29275 1-332): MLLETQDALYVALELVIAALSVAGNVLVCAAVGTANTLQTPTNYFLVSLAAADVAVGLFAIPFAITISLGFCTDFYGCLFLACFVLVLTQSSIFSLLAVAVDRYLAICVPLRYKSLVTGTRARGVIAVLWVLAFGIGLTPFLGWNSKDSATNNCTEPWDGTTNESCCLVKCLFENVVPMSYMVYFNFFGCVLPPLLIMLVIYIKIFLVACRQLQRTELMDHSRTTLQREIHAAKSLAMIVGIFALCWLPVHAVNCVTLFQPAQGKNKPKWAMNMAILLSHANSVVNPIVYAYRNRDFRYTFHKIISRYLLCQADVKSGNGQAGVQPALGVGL
Experimental: Measurement of cyclic AMP (CAMP) levels in CHO cells transfected with human A2B adenosine receptors was performed in the following manner. CHO cells transfected with human A2B adenosine receptors were washed with phosphate-buffered saline, diluted tripsine and centrifuged for 10 minutes at 200 g.
The reaction was terminated by the addition of cold 6% thrichloroacetic acid (TCA). The TCA suspension was centrifuged at 2000 g for 10 minutes at 4° C. and the supernatant was extracted four times with water saturated diethyl ether. The final aqueous, solution was tested for cAMP levels by a competition protein binding assay. Samples of cAMP standard (0–10 pmoles) were added to each test tube containing the incubation buffer (trizma base 0.1 M, aminophylline 8.0 mM, 2-mercaptoethanol 6.0 mM, pH 7.4) and [H^3]-cAMP in a total volume of 0.5 ml. The binding protein previously prepared from beef adrenals, was added to the samples previously incubated at 4° C. for 150 minutes, and after the addition of charcoal were centrifuged at 2000 g for 10 minutes. The clear supernatant was counted in a Beckman scintillation counter.
Finally, to evaluate the regulation of adenylyl cyclase activity and to test whether the binding parameters correlated with the functional response, the IC50 values were obtained for inhibition of cAMP production by antagonists. In particular, we evaluated the capability of the several compounds to inhibit NECA (100 nM)-stimulated cyclic AMP accumulation.

[5] = target: T4, human A2B adenosine receptor; assay: [3H]DPCPX binding to human A2B receptors expressed in HEK293 cells; set-up: host or cells: HEK 293 cells (membranes)
Method in brief: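 Membranes (20 μg protein) from HEK293 cells expressing recombinant human A2B receptor were incubated 60 min at 25° C with 40 nM [3H]-DPCPX and 6–8 compound concentrations. Buffer was Tris-HCl with MgCl2, 1 mM EDTA, 0.1 mM benzamidine and 2 IU/ml adenosine deaminase, pH 7.4. Filter-bound radioactivity gave the inhibitory binding constant.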

[6] = read-out: Ki, [3H]ZM241385 binding to human A2A receptors expressed in CHO cells
[7] = inhibition of NECA (100 nM)-stimulated cAMP, geometric mean (95% confidence limits)
[8] = Table 2, geometric mean (95% confidence limits), at least three experiments in duplicate, read-out: [3H]-DPCPX binding to human A2B receptors in HEK 293 cells Ki
[9] = geometric mean (95% confidence interval), >1000 = no appreciable binding, read-out: Ki, [3H]DPCPX binding to human A2B receptors expressed in HEK293 cells

T2 sequence (P29274 whole entry): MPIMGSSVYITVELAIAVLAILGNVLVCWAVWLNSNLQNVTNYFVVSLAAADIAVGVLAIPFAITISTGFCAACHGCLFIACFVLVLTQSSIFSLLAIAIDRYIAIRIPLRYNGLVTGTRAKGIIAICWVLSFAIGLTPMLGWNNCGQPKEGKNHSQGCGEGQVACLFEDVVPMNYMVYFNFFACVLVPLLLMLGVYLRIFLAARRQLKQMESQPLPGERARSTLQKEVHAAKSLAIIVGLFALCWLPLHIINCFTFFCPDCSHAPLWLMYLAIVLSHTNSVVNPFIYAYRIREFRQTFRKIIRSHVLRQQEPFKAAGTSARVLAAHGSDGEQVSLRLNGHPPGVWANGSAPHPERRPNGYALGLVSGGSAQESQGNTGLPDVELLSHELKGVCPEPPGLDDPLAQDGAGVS

Ki [1] [nM] | Ki [2, 6] [nM] | Ki [3] [nM] | IC50 [4, 7] [nM] | Ki [5, 8] [nM] | Ki [5, 9] [nM] | IC50 [4] [nM] | SMILES | Ki [2] [nM]
56 | > 1000 | > 1000 | 93 | 13 | 13 | – | CCCn1c(=O)c2[nH]c(-c3cc(NC(=O)Cc4ccc(OCc5ccccc5C(F)(F)F)cc4)nn3C)nc2n(CCC)c1=O [AS29, N-[5-(2,6-dioxo-1,3-dipropyl-2,3,6,9-tetrahydro-1H-purin-8-yl)-1-methyl-1H-pyrazol-3-yl]-2-(4-{[2-(trifluoromethyl)benzyl]oxy}phenyl)acetamide] | –
448 | > 1000 | > 1000 | – | 39 | 39 | 136 | CCCn1c(=O)c2[nH]c(-c3cc(NC(=O)Nc4cccc(Cl)c4)nn3C)nc2n(CCC)c1=O [AS54, N-(3-chlorophenyl)-N'-[5-(2,6-dioxo-1,3-dipropyl-2,3,6,7-tetrahydro-1H-purin-8-yl)-1-methyl-1H-pyrazol-3-yl]urea] | –
150 | > 1000 | > 1000 | 108 | 20 | 20 | – | CCCn1c(=O)c2[nH]c(-c3cc(OCC(=O)Nc4ccc(Br)cc4)nn3C)nc2n(CCC)c1=O [AS65, 2-{[5-(2,6-dioxo-1,3-dipropyl-2,3,6,9-tetrahydro-1H-purin-8-yl)-1-methyl-1H-pyrazol-3-yl]oxy}-N-(4-bromophenyl)acetamide] | –

SMILES | Ki [1] [nM] | Ki [2, 6] [nM] | Ki [3] [nM] | IC50 [4, 7] [nM] | Ki [5, 8] [nM] | Ki [5, 9] [nM] | IC50 [4] [nM] | Ki [2] [nM]
CCCn1c(=O)c2[nH]c(-c3cc(NC(=O)Cc4ccc5c(c4)OCO5)nn3C)nc2n(CCC)c1=O [AS57, 2-(1,3-benzodioxol-5-yl)-N-[5-(2,6-dioxo-1,3-dipropyl-2,3,6,9-tetrahydro-1H-purin-8-yl)-1-methyl-1H-pyrazol-3-yl]acetamide] | 566 | – | > 1000 | 95 | 18 | 18 | – | 1250
